According to ChEMBL document CHEMBL1201862, “PubChem BioAssay data set” (2004):
Calls of active or inactive are those of the source.

Columns and labels:
[1] = molecular target: Beta-lactamase (Pseudomonas aeruginosa, UniProt Q79MP6);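 also: biochemical dose-response test of metallo-beta-lactamase enzyme inhibition, read out by epi-absorbance; purified recombinant IMP-1 metallo-beta-lactamase with nitrocefin as substrate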
[2] = molecular target: Beta-lactamase (Salmonella choleraesuis (strain SC-B67), UniProt Q5J463)
[3] = molecular target: Intestinal-type alkaline phosphatase (Mus musculus, UniProt P24822); assay: PubChem AID 488874; assay type: functional
[4] = molecular target: T1, Intestinal-type alkaline phosphatase (Homo sapiens, UniProt P09923); assay: inhibition of human intestinal alkaline phosphatase – biochemical, luminescent, uHTS hits, set 2, dose response (AID 488793); assay type: functional
[5] = molecular target: T1, Intestinal-type alkaline phosphatase; assay: Dose Response confirmation of uHTS hits from a small molecule inhibitors of human intestinal alkaline phosphatase via a luminescent assay. [Related pubchem assays (depositor defined):AID2544, AID2574]; assay type: functional
[6] = molecular target: ORF 73 (Human herpesvirus 8, UniProt O40947); assay: KSHV LANA DNA-binding disruption – biochemical, fluorescence polarization, cherry-picked samples, dose response (AID 504725); set-up: species or system Human gammaherpesvirus 8;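 also: fluorescence polarization of a labeled DNA duplex reporting LANA DNA binding; potency is for inhibitors that block LANA binding to the DNA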
[7] = molecular target: T2, Alkaline phosphatase, tissue-nonspecific isozyme (Homo sapiens, UniProt P05186); assay: inhibition of tissue-nonspecific alkaline phosphatase – biochemical, dose response (AID 488882); assay type: functional
T2 sequence (P05186 whole entry): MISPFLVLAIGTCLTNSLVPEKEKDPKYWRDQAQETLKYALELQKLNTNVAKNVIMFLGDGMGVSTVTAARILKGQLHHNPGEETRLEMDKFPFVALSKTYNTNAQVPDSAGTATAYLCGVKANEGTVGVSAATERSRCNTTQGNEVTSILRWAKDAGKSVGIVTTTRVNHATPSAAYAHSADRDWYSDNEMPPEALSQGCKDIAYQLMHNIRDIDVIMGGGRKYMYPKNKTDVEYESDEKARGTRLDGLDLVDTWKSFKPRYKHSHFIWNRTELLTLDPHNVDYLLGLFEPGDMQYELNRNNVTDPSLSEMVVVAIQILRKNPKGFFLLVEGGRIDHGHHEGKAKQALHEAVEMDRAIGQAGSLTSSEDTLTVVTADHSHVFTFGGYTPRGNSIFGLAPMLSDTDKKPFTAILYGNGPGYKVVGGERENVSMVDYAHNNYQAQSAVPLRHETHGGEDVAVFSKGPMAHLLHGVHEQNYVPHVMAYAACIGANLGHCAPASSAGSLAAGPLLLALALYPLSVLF

[8] = molecular target: T3, Insulin-degrading enzyme (Homo sapiens, UniProt P14735); assay: recombinant IDE activation, cell-free – biochemical, fluorescence polarization, counter-screen for IDE activator project, dose response (AID 588681)
T3 sequence (P14735 whole entry): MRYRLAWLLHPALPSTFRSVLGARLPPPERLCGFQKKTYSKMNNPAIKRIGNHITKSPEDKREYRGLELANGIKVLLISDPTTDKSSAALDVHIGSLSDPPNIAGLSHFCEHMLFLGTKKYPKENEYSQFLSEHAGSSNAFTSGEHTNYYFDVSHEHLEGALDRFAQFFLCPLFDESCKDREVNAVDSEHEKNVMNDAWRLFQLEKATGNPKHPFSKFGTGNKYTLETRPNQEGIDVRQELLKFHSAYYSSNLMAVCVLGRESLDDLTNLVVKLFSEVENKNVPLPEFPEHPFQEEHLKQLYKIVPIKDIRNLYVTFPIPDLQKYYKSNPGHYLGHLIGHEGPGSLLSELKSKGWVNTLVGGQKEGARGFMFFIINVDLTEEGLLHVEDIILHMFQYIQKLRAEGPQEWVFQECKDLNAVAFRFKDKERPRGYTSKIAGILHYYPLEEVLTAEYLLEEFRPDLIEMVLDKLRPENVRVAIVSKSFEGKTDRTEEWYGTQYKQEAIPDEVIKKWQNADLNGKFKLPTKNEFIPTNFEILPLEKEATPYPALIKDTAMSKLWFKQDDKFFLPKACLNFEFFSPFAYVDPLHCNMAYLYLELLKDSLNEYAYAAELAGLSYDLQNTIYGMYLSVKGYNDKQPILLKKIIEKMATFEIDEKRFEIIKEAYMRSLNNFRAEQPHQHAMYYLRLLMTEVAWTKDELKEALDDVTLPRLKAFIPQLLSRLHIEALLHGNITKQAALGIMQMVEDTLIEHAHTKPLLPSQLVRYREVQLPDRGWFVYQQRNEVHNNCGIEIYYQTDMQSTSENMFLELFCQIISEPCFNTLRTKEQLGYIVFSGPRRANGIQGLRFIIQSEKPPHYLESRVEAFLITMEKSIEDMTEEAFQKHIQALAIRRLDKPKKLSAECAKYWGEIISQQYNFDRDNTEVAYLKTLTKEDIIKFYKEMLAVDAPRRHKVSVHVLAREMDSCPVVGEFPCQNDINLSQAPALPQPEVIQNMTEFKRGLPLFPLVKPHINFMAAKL

[9] = molecular target: T3, Insulin-degrading enzyme; assay: cellular IDE activation of Abeta substrate cleavage – fluorescence polarization, HEK cells, dose response (AID 588439); assay type: functional, cell-based
[10] = test system: HEK293; assay: membrane integrity loss in HEK cells – cell-based, fluorescence, cytotoxicity control for IDE activator project, dose response (AID 588440); assay type: functional; conditions: Homo sapiens;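 also: cytotoxicity by LDH release measuring loss of membrane integrity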
[11] = test system: HEK293; assay: optical interference in Abeta FP readout, dose response, artefact control for IDE activator project, biochemical, fluorescence polarization (AID 588442); assay type: functional, cell-based; conditions: Homo sapiens
[12] = molecular target: T4, RNA-binding protein pos-1 (Caenorhabditis elegans, UniProt G5EF15); assay: disruptors of C. elegans POS-1 RNA interaction – biochemical, fluorescence polarization, dose response (AID 1964);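 also: purified POS-1 fused to maltose binding protein made in E. coli; potency of compounds blocking POS-1 binding to fluorescent RNA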
T4 sequence (G5EF15 whole entry): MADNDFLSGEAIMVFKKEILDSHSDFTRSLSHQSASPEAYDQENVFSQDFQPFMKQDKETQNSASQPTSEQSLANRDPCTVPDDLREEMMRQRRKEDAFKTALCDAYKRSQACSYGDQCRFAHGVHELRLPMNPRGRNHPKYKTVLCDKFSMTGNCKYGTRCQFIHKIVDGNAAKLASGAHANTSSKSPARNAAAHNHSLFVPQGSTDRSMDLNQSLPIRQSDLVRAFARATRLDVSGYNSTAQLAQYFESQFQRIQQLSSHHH

[13] = molecular target: T5, Zinc finger protein mex-5 (Caenorhabditis elegans, UniProt Q9XUB2); assay: potency of MEX-5 RNA-binding blockers – biochemical, C. elegans, fluorescence polarization, dose response (AID 1960)
T5 sequence (Q9XUB2 whole entry): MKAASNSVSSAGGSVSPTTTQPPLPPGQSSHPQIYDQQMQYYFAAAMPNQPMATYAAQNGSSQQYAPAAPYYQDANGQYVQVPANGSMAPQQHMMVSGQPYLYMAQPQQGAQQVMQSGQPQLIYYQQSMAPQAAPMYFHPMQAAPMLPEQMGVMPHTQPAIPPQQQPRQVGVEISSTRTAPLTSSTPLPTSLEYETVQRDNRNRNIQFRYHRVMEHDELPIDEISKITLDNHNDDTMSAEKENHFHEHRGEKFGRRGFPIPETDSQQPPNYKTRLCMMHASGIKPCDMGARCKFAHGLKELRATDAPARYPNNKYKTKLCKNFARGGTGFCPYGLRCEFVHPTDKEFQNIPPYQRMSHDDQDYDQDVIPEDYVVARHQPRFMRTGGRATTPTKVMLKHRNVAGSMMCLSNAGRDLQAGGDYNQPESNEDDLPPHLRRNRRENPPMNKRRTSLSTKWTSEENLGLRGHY

[14] = test system: CHO-K1; assay: (§1) Counterscreen for antagonists of the orexin 1 receptor (OX1R; HCRTR1): Homogeneous time resolved fluorescence (HTRF)-based cell-based dose response assay to identify antagonists of the parental CHO-K1 cell line. [Related pubchem assays (depositor defined):AID434989, AID435008, AID463079, AID485270, AID492963, AID492964, AID492965, AID493232, AID504699, AID504701]; assay type: functional; conditions: Cricetulus griseus
[15] = as §1, with “Fluorescence-based” for “Homogeneous time resolved fluorescence (HTRF)-based”, “cell-based high throughput” for “cell-based”, “CHO” for “CHO-K1”; assay type: functional
[16] = molecular target: T6, Orexin/Hypocretin receptor type 1 (Homo sapiens, UniProt O43613); assay: Homogeneous Time Resolved Fluorescence (HTRF)-based cell-based high throughput dose response assay for antagonists of the orexin 1 receptor (OX1R; HCRTR1). [Related pubchem assays (depositor defined):AID434989, AID435008, AID463079, AID485270, AID492963, AID492964, AID492965, AID493232, AID504717, AID504718]; assay type: functional
[17] = molecular target: T6, Orexin/Hypocretin receptor type 1; assay: Fluorescence-based cell-based high throughput dose response assay for antagonists of the orexin 1 receptor (OX1R; HCRTR1). [Related pubchem assays (depositor defined):AID434989, AID435008, AID463079, AID485270, AID492963, AID492964, AID492965, AID493232, AID504717, AID504718]; assay type: functional
[18] = molecular target: T7, Orexin receptor type 2 (Homo sapiens, UniProt O43614); assay: Counterscreen assay for antagonists of the orexin 1 receptor (OX1R; HCRTR1): Fluorescence-based cell-based dose response assay for antagonists of the orexin 2 receptor (OX2R; HCRTR2), run by assay provider.; assay type: functional
[19] = molecular target: T7, Orexin receptor type 2; assay: Counterscreen assay for antagonists of the orexin 1 receptor (OX1R; HCRTR1): Homogeneous Time Resolved Fluorescence (HTRF)-based cell-based dose response assay for antagonists of the orexin 2 receptor (OX2R; HCRTR2), run by assay provider.; assay type: functional

T6 sequence (O43613 whole entry): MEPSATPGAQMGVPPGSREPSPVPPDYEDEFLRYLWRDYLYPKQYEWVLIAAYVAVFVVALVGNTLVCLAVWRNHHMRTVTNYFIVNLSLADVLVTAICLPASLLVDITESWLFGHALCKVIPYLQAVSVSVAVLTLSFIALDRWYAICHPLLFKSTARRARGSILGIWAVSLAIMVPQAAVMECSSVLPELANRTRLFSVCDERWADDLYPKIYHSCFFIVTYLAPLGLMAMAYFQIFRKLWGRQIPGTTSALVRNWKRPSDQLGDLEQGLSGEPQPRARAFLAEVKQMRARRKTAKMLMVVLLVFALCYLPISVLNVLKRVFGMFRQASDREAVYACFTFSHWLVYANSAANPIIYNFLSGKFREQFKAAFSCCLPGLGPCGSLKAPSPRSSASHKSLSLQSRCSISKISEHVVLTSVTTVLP
T1 sequence (P09923 whole entry): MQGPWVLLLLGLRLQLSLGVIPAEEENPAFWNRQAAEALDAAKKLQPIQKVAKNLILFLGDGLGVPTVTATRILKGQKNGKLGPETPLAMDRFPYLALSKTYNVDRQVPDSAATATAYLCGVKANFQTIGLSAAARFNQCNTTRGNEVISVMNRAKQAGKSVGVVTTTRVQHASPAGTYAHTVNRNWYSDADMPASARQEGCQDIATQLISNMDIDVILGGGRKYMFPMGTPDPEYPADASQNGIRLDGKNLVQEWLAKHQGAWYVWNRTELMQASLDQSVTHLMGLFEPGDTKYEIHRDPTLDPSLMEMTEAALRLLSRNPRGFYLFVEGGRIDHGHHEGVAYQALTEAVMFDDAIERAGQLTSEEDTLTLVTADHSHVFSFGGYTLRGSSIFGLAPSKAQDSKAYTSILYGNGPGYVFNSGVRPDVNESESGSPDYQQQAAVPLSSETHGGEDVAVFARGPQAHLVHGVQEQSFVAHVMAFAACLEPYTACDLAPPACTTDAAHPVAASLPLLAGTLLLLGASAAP
T7 sequence (O43614 whole entry): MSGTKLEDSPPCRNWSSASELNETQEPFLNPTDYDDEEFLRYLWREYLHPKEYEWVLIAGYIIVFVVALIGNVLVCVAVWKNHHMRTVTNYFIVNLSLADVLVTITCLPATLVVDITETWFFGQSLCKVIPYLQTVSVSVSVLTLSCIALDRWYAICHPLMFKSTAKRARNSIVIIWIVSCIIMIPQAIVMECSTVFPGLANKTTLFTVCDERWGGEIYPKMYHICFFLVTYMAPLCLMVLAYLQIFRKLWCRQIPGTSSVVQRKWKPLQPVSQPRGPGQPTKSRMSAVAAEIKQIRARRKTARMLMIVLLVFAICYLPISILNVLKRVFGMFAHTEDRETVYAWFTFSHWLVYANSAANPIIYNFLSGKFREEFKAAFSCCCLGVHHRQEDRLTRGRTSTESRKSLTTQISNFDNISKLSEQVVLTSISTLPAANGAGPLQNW
Chain of ORF 73 (O40947 whole entry): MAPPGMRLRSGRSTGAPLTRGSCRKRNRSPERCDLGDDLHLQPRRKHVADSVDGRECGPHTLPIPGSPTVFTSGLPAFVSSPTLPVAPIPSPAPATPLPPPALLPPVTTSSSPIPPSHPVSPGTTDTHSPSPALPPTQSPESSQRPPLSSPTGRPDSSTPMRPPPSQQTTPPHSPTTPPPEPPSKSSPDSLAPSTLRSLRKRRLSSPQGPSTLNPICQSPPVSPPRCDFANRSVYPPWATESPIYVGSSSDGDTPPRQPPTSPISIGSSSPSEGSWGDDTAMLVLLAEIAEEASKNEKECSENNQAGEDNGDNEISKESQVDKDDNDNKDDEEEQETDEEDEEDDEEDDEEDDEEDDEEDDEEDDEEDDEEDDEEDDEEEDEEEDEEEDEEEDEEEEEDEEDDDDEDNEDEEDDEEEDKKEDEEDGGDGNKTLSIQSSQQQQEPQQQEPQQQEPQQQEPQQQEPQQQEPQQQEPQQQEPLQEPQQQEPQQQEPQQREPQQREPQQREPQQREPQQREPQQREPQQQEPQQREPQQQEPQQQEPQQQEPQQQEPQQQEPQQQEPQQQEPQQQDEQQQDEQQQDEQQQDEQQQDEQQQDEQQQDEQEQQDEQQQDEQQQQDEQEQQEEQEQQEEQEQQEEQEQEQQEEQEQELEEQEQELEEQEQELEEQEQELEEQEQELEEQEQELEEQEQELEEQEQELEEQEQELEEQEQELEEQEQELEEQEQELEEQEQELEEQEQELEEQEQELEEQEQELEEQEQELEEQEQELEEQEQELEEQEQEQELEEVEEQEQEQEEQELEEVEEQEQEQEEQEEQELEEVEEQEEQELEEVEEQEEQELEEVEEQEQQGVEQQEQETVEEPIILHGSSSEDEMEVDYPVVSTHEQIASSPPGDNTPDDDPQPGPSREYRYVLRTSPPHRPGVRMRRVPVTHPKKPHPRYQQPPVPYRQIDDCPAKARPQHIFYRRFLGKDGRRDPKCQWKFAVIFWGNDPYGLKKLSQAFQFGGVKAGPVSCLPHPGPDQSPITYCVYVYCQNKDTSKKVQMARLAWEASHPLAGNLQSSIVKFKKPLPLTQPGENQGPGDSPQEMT
Chain of Beta-lactamase (Salmonella choleraesuis (strain SC-B67), UniProt Q5J463) (Q5J463 whole entry): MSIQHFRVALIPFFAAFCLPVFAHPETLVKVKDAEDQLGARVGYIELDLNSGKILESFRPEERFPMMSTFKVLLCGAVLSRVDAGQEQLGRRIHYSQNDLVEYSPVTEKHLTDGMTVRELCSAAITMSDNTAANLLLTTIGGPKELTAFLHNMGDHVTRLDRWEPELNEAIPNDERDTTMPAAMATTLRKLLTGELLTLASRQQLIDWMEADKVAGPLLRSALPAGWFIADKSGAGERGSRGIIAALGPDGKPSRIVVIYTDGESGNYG
Chain of Intestinal-type alkaline phosphatase (Mus musculus, UniProt P24822) (P24822 whole entry): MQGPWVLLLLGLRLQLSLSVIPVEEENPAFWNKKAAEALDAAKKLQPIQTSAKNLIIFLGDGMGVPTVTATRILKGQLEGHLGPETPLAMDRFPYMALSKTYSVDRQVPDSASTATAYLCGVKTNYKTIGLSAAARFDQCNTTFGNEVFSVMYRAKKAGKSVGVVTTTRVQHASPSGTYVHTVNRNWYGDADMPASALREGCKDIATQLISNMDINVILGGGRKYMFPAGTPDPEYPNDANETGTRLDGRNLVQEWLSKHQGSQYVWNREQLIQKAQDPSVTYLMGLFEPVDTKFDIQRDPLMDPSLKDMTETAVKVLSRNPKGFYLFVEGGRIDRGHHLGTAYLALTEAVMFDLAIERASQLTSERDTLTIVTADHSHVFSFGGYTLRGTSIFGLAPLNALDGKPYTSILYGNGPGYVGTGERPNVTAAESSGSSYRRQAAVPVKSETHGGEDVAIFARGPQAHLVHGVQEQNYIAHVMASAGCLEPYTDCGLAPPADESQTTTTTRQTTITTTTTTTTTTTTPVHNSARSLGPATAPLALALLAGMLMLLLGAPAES
Chain of Beta-lactamase (Pseudomonas aeruginosa, UniProt Q79MP6) (Q79MP6 whole entry): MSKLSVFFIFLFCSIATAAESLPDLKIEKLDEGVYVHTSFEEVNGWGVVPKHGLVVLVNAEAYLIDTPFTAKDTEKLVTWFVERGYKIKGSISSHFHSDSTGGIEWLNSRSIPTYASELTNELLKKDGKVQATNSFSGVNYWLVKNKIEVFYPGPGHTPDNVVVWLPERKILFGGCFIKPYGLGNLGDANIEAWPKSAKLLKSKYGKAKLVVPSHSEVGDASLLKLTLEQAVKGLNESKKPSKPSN

Row | Compound | IC50 [1] | IC50 [2] | IC50 [3] | IC50 [4] | IC50 [5] | AC50 [6] | IC50 [7] | EC50 [8] | EC50 [9] | IC50 [10] | EC50 [11] | EC50 [12] | EC50 [13] | IC50 [14] | IC50 [15] | IC50 [16] | IC50 [17] | IC50 [18] | IC50 [19]
1 | Nc1ccc(-c2c3ccc(=O)cc-3oc3cc(O)ccc23)cc1C(=O)O | 8.62 µM (active) | 3.41 µM (active) | 20.3 µM (active) | 28.1 µM (active) | 14.5 µM (inactive) | 0.532 µM (active) | 34 µM (active) | > 54.7 µM (inactive) | > 54.7 µM (inactive) | > 89.2 µM (inactive) | > 54.7 µM (inactive) |  |  |  |  |  |  |  | 
2 | Nc1c(C(=O)c2ccc(Br)s2)oc2ccccc12 |  |  |  |  |  |  |  |  |  |  |  | 71.8 µM (active) | 106 µM (active) | > 66.2 µM (inactive) | > 49.8 µM (inactive) | 6.69 µM (active) | 15.7 µM (inactive) | 30.7 µM (inactive) | > 50 µM (inactive)
